# pIC50: −log10 of the molar value.
# Tests used:
# CECR2 (h) bromodomain = molecular target: T1, CECR2 (h) bromodomain (Homo sapiens, UniProt Q9BXF3); test: Epigenetic binding assay, Bromodomain; details: for inhibition at 10 µM: read-out: % Inhibition of Control Specific Binding
# T1 construct: CECR2(h) bromodomain
# FBXL10 (h) = molecular target: T2, FBXL10 (h) (Homo sapiens, UniProt Q8NHM5); test: Epigenetic enzyme assay, Demethylases (KDMs); format: biochemical; details: 10 μM; read-out: % Inhibition of Control Values
# T2 sequence (Q8NHM5 1-1336): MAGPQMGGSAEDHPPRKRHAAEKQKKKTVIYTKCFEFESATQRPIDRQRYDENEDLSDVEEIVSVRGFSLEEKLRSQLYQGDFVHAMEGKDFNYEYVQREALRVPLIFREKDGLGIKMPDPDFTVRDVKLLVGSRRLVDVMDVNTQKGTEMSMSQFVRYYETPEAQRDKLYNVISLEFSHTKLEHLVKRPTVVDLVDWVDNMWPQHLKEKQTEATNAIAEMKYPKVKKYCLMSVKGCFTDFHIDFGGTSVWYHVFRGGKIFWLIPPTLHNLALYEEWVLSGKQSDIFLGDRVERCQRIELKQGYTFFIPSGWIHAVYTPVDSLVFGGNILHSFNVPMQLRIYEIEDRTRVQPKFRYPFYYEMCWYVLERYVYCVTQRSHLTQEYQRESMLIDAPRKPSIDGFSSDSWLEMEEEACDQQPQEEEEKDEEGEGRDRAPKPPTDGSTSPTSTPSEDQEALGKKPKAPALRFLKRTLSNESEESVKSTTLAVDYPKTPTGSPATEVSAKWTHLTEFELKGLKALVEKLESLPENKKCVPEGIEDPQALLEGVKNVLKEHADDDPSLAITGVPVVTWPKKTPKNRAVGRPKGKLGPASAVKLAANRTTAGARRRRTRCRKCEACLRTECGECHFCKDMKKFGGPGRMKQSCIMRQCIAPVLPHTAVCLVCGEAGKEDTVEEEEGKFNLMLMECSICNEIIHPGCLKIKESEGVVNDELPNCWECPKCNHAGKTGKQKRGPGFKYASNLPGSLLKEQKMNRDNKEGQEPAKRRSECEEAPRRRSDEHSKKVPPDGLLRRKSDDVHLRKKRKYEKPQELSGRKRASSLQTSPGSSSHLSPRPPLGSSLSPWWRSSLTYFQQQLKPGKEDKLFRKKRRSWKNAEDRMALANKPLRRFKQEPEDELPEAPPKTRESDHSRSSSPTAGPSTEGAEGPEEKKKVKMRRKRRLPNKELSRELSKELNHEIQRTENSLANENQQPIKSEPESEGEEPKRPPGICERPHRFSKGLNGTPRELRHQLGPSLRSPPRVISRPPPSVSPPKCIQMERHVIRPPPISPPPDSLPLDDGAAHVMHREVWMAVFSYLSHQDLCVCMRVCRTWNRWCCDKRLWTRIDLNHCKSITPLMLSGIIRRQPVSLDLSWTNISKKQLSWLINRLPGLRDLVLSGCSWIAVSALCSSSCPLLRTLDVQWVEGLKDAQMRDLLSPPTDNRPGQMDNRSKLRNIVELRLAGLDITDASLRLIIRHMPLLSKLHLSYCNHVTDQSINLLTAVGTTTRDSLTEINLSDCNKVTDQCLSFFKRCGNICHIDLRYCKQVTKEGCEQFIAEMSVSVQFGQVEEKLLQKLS
# HDAC8 (h) = molecular target: T3, HDAC8 (h) (Homo sapiens, UniProt Q9BY41); test: Epigenetic enzyme assay, Histone deacetylase (HDACs); format: biochemical; details: read-out: % Inhibition of Control Values
# T3 sequence (Q9BY41 1-377): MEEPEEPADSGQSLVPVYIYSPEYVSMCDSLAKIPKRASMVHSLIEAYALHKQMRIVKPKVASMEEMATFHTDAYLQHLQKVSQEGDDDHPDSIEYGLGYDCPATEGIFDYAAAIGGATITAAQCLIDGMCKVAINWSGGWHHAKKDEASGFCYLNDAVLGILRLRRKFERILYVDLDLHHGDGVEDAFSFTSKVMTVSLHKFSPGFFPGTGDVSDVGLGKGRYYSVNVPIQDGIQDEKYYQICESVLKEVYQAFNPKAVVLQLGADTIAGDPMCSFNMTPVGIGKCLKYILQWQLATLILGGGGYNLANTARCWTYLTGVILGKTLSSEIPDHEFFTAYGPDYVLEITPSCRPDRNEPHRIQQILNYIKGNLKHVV
# BAP1 (h) = molecular target: T4, BAP1 (h) (Homo sapiens, UniProt Q92560); test: Epigenetic enzyme assay, Ubiquitin modifying enzymes; format: biochemical; details: 10 μM; read-out: % Inhibition of Control Values
# T4 sequence (Q92560 1-729): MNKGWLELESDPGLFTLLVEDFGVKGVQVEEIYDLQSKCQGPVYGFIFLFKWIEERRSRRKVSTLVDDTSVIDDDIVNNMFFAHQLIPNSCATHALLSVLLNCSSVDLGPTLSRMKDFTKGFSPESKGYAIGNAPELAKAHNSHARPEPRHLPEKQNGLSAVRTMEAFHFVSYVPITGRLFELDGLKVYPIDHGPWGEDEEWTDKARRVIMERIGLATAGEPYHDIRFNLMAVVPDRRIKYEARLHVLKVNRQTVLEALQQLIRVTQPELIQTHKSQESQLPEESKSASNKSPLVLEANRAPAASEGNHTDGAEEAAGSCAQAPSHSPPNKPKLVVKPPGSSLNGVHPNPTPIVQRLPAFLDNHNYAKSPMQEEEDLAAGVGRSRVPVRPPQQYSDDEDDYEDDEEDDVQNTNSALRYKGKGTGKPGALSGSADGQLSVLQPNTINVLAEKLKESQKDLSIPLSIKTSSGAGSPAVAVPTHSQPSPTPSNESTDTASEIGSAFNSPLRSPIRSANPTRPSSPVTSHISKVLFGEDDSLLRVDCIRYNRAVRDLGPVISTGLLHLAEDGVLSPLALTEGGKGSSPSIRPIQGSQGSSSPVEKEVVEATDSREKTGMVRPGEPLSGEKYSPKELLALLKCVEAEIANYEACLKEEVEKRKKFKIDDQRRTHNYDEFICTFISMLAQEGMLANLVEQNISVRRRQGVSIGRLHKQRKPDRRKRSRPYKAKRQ
# T1 sequence (Q9BXF3 434-538 limits assumed): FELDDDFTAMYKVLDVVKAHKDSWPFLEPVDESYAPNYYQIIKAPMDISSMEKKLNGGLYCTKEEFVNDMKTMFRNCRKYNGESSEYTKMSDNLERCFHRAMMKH
compound,measurement,setting,value
"CC(C)=CCC[C@H](CO)[C@@H]1CC[C@@H](C)c2c1cc(C)c(O)c2O [Compound 1, 7,8,18-trihydroxyserrulat-14-ene]",% Inhibition of Control Specific Binding,CECR2 (h) bromodomain; 10 μM,significant inhibitory activity
same,inhibition at 10 µM,CECR2 (h) bromodomain; 10 μM,100%
same,"inhibition of binding, 1st",CECR2 (h) bromodomain; 3.0E−05M,99.4
same,"inhibition of binding, 2nd",CECR2 (h) bromodomain; 3.0E−05M,99.6
same,"inhibition of binding, Mean",CECR2 (h) bromodomain; 3.0E−05M,99.5
same,"inhibition of binding, 1st",CECR2 (h) bromodomain; 3.0E−06M,7.3
same,"inhibition of binding, 2nd",CECR2 (h) bromodomain; 3.0E−06M,8.6
same,"inhibition of binding, Mean",CECR2 (h) bromodomain; 3.0E−06M,7.9
same,"inhibition of binding, 1st",CECR2 (h) bromodomain; 3.0E−07M,−1.5
same,"inhibition of binding, 2nd",CECR2 (h) bromodomain; 3.0E−07M,0.9
same,"inhibition of binding, Mean",CECR2 (h) bromodomain; 3.0E−07M,−0.3
same,"inhibition of binding, 1st",CECR2 (h) bromodomain; 3.0E−08M,−0.9
same,"inhibition of binding, 2nd",CECR2 (h) bromodomain; 3.0E−08M,−1.7
same,"inhibition of binding, Mean",CECR2 (h) bromodomain; 3.0E−08M,−1.3
same,"inhibition of binding, 1st",CECR2 (h) bromodomain; 3.0E−09M,5.9
same,"inhibition of binding, 2nd",CECR2 (h) bromodomain; 3.0E−09M,2.4
same,"inhibition of binding, Mean",CECR2 (h) bromodomain; 3.0E−09M,4.2
same,pIC50,"CECR2 (h) bromodomain; Table 9, inhibition/concentration-response curve",5.30
same,inhibition at 10 µM,FBXL10 (h),37%
same,inhibition at 10 µM,HDAC8 (h),-8%
same,inhibition at 10 µM,BAP1 (h),1%
"CC(C)=CCC[C@@H]1C(O)Oc2c(C)cc(O)c3c2[C@H]1CC[C@H]3C (some centres unmarked) [Compound 2, 5,18-epoxyserrulat-14-en-8,18-diol]",inhibition at 10 µM,CECR2 (h) bromodomain; 10 μM,25%
same,inhibition at 10 µM,FBXL10 (h),7%
same,inhibition at 10 µM,HDAC8 (h),-19%
same,inhibition at 10 µM,BAP1 (h),-9%
"CC(C)=CCC[C@@H]1COc2c(C)cc(O)c3c2[C@H]1CC[C@H]3C [Compound 3, 5,18-epoxy-8-hydroxyserrulat-14-ene]",inhibition at 10 µM,CECR2 (h) bromodomain; 10 μM,15%
same,inhibition at 10 µM,FBXL10 (h),22%
same,inhibition at 10 µM,HDAC8 (h),0%
same,inhibition at 10 µM,BAP1 (h),24%

# — patent US11331299B2, “Medicinal use of serrulatane diterpenes” (The University of Sydney, priority 2016, dated 2022)
